{"source": "BindingDB's records for doi:10.7270/Q2B27SRF", "about": "(Broad Institute, 2010)", "data": [{"biological_target": "Serine/threonine-protein kinase 33 (Homo sapiens, UniProt Q9BYT3)", "sequence (Q9BYT3 whole entry)": "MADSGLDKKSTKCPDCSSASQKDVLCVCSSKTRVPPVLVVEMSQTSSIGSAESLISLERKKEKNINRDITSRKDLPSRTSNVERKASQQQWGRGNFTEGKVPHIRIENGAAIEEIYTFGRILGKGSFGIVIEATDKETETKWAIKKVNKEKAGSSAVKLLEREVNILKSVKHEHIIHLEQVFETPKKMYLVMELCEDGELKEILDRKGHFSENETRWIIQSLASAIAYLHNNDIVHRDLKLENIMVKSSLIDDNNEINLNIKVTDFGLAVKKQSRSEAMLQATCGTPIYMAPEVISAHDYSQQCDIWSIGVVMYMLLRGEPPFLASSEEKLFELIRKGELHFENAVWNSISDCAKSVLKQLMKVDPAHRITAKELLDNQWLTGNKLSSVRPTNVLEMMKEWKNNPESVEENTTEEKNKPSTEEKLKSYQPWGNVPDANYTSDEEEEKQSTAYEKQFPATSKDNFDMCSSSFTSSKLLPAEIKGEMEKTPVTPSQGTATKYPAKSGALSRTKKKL", "assay": "inhibition of STK33 phosphorylation of MBP – biochemical, luminescence, cell-free, retest, dose response (AID 2821)", "units": {"EC50": "µM"}, "values": [{"smiles": "CCCCC(CC)CNC(=N)NC(=N)NCCCCCCNC(=N)NC(=N)NCC(CC)CCCC", "note": "(stereo not drawn) [MLS002153995]", "EC50": "> 120"}, {"smiles": "C=CC(=O)Nc1ccc(CN2C(=O)N(c3c(Cl)c(OC)cc(OC)c3Cl)Cc3cnc(NCCCCN(CC)CC)nc32)cc1", "note": "[N-[4-[[3-[2,6-bis(chloranyl)-3,5-dimethoxy-phenyl]-7-[4-(diethylamino)butylamino]-2-oxidanylidene-4H-pyrimido[4,5-d]pyrimidin-1-yl]methyl]phenyl]prop-2-enamide]", "EC50": 0.618}, {"smiles": "COc1cc(C=CC(=O)CC(=O)C=Cc2ccc(O)cc2)ccc1O", "note": "[demethoxycurcumin]", "EC50": 1.75}, {"smiles": "O=C1N=C(NCc2ccccc2)SC1=Cc1ccc(O)cc1", "note": "[SMR000217101]", "EC50": 2.11}, {"smiles": "COc1cccc(-c2onc3ccc(C(=O)/C=C/N(C)C)cc23)c1", "note": "[MLS001165915]", "EC50": 12}, {"smiles": "COC(=O)c1ccc(COc2ccccc2/C=C/C(=O)c2ccc(OCC(=O)O)cc2)cc1", "note": "[SMR000590970]", "EC50": 1.86}, {"smiles": "c1ccc2c3c([nH]c2c1)-c1n[nH]cc1CC3", "note": "[3,4,16-triazatetracyclo[7.7.0.0^{2,6}.0^{10,15}]hexadeca-1(9),2,5,10,12,14-hexaene]", "EC50": 61}, {"smiles": "CCCCCCCCCCCCCCCCn1cc[n+](C)c1", "note": "[1-cetyl-3-methyl-imidazol-3-ium;bromide]", "EC50": "> 120"}, {"smiles": "NC(=S)c1cn(C2OC(CO)C(O)C2O)c2ncnc(N)c12", "note": "(stereo not drawn) [4-amino-7-[3,4-dihydroxy-5-(hydroxymethyl)oxolan-2-yl]pyrrolo[2,3-d]pyrimidine-5-carbothioamide]", "EC50": 3.48}, {"smiles": "Oc1cc(O)cc(/C=C/c2ccc(O)cc2O)c1", "note": "[(oxyresveratrol)4-[(E)-2-(3,5-dihydroxyphenyl)vinyl]benzene-1,3-diol]", "EC50": 9.66}, {"smiles": "Cc1cc(C=C2C(=O)c3ccccc3C2=O)c(C)n1-c1cccc(C(=O)O)c1", "note": "[3-[3-[[1,3-bis(oxidanylidene)inden-2-ylidene]methyl]-2,5-dimethyl-pyrrol-1-yl]benzoic acid]", "EC50": "> 120"}, {"smiles": "O=C1c2ccccc2-c2onc3ccc(NCCCn4ccnc4)c1c23", "note": "[SMR000044769]", "EC50": 8.03}, {"smiles": "CCOc1ccccc1C(=O)Nc1cc(Cl)ccc1O", "note": "[N-(5-chloranyl-2-oxidanyl-phenyl)-2-ethoxy-benzamide]", "EC50": 6.82}, {"smiles": "O=C(O)c1ccc(NC(=O)c2cccc(C(=O)Nc3ccc(C(=O)O)cc3)n2)cc1", "note": "[4-[[6-[(4-carboxyphenyl)carbamoyl]pyridin-2-yl]carbonylamino]benzoic acid]", "EC50": 28.3}, {"smiles": "COc1ccc(C(=O)ON=C(C)c2ccccc2)cc1", "note": "[SMR000159704]", "EC50": 68.2}, {"smiles": "CCN1CCN(c2cc(C)c3cc(NC(=O)c4ccc(Br)o4)ccc3n2)CC1", "note": "[5-bromo-N-[2-(4-ethylpiperazin-1-yl)-4-methylquinolin-6-yl]furan-2-carboxamide]", "EC50": 18.4}, {"smiles": "COc1ccccc1Nc1oc2cc(=O)ccc-2cc1C(N)=O", "note": "[2-(2-methoxyanilino)-7-oxo-1-benzopyran-3-carboxamide]", "EC50": 30.9}, {"smiles": "COC(=O)c1cc(NC(=O)C2COc3ccccc3O2)cc(C(=O)OC)c1", "note": "(stereo not drawn) [dimethyl 5-(2,3-dihydro-1,4-benzodioxin-3-ylcarbonylamino)benzene-1,3-dicarboxylate]", "EC50": "> 120"}, {"smiles": "COc1cc(C=Nn2c(-c3ccccc3)n[nH]c2=S)ccc1O", "note": "[(4E)-2-methoxy-4-[[(3-phenyl-5-sulfanylidene-1H-1,2,4-triazol-4-yl)amino]methylidene]cyclohexa-2,5-dien-1-one]", "EC50": 7.09}, {"smiles": "COc1ccc(/C=C/c2nc3ccccc3n2C)cc1", "note": "[MLS000719304]", "EC50": 26.1}, {"smiles": "CCC(Sc1ccc2nnc(-c3ccc(OC)c(OC)c3)n2n1)C(=O)O", "note": "(stereo not drawn)", "EC50": 13.2}, {"smiles": "CN1CCCC1CCNc1ccc2oc3ccccc3c(=O)c2c1", "note": "(stereo not drawn) [MLS001249997]", "EC50": "> 120"}, {"smiles": "O=C(O)c1cc(N=NCc2c(O)ccc3ccccc23)ccc1Cl", "note": "[MLS001173801]", "EC50": 32.3}, {"smiles": "CCN1C=CC(=C2C(=O)c3ccccc3C2=O)C=C1", "note": "[2-(1-ethyl-4-pyridinylidene)indene-1,3-dione]", "EC50": 14}, {"smiles": "NC(=O)NN=Cc1c(O)ccc2oc3c(c12)CCCC3", "note": "[SMR000414386]", "EC50": 1.24}, {"smiles": "CC(=O)N(C)c1ccc(N=Cc2c(O)ccc3ccccc23)cc1", "note": "[MLS001212262]", "EC50": 3.76}, {"smiles": "Cc1sc2ncnc(N=NCc3cccc(O)c3)c2c1C", "note": "[SMR000219295]", "EC50": 17}, {"smiles": "O=C1C=CC(O)(c2cc(=O)c3c(O)cc(O)cc3o2)C=C1", "note": "[SMR000156275]", "EC50": "> 120"}, {"smiles": "CCn1c(C)nc2cc(-c3nc4n(n3)Cc3ccccc3-4)ccc21", "note": "[2-(1-ethyl-2-methyl-5-benzimidazolyl)-5H-[1,2,4]triazolo[5,1-a]isoindole]", "EC50": 11}, {"smiles": "Nc1c(C(=O)O)ccc2c1C(=O)c1ccccc1C2=O", "EC50": 22.2}, {"smiles": "N#C/C(=C\\c1ccc(O)c(O)c1)C(=O)c1ccc(O)c(O)c1", "note": "[(2E)-3-(3,4-dihydroxyphenyl)-2-[(3,4-dihydroxyphenyl)carbonyl]prop-2-enenitrile]", "EC50": 44.9}, {"smiles": "O=C1NC2c3ccccc3C(=O)N2c2c1cnn2-c1ccccc1", "note": "(stereo not drawn) [MLS000028140]", "EC50": "> 120"}, {"smiles": "CN(C)c1nc2sc3c(c2c(=O)n1C)CC(C)(C)OC3", "note": "[MLS000071412]", "EC50": "> 120"}, {"smiles": "CC(C)n1cnc2c(Nc3cccc(Cl)c3)nc(NCCCO)nc21", "EC50": 1.84}, {"smiles": "O=C(Nc1cc(C(=O)Nc2ccccc2C(=O)O)cc(C(=O)Nc2ccccc2C(=O)O)c1)c1ccccc1", "note": "[SMR000658665]", "EC50": "> 120"}, {"smiles": "O=C1NC(=O)/C(=C/c2ccc(O)cc2)S1", "note": "[SMR000324608]", "EC50": 12.4}, {"smiles": "CCCCCCCCCCOC(=O)Cn1c(COc2ccc(Cl)cc2)[n+](C)c2ccccc21", "note": "[decyl 2-[2-[(4-chloranylphenoxy)methyl]-3-methyl-benzimidazol-3-ium-1-yl]ethanoate;chloride]", "EC50": "> 120"}, {"smiles": "COc1c(O)cc2oc(-c3ccc(O)c(O)c3)cc(=O)c2c1O", "EC50": 11}, {"smiles": "COc1cc(CN=Nc2ccc(C(F)(F)F)cn2)ccc1O", "note": "[(4E)-2-methoxy-4-[[[5-(trifluoromethyl)-2-pyridinyl]hydrazo]methylidene]-1-cyclohexa-2,5-dienone]", "EC50": 19}, {"smiles": "Cc1ncc(C=C2C(=O)Nc3ccccc32)[nH]1", "note": "[3-[(Z)-(2-methyl-1H-imidazol-4-yl)methylidene]-1H-indol-2-one]", "EC50": 3.42}, {"smiles": "Oc1ccc(CN=Nc2ccnc3cc(Cl)ccc23)cc1O", "note": "[(4Z)-4-[[2-(7-chloroquinolin-4-yl)hydrazinyl]methylidene]-2-hydroxycyclohexa-2,5-dien-1-one]", "EC50": 3.05}, {"smiles": "O=NCc1c(Nc2ccccc2)nc2ccccn2c1=O", "note": "[(3Z)-3-[(hydroxyamino)methylene]-2-phenylimino-pyrido[1,2-a]pyrimidin-4-one]", "EC50": 6.22}, {"smiles": "COC(=O)c1cccc2c1-c1ccccc1C2N=O", "note": "(stereo not drawn) [(9Z)-9-hydroximinofluorene-4-carboxylic acid methyl ester]", "EC50": 11.8}, {"smiles": "CCOc1cc(C=C(C#N)c2n[nH]c(N)c2C#N)ccc1O", "note": "[MLS000523215]", "EC50": 8.62}, {"smiles": "O=c1c2ccccc2sc2ccc(NCCCN3CCOCC3)cc12", "EC50": 16.8}, {"smiles": "COc1ccc(NC(=S)Nc2ccc3cn[nH]c3c2)cc1", "note": "[MLS001005420]", "EC50": "> 120"}, {"smiles": "Cc1cc(C(=O)O)ccc1N=Cc1c(O)ccc2ccccc12", "note": "[4-[(2-Hydroxy-naphthalen-1-ylmethylene)-amino]-3-methyl-benzoic acid]", "EC50": 22.7}, {"smiles": "O=c1c(-c2c(O)cc(O)c3c2O[C@H](c2ccc(O)cc2)CC3)c(-c2ccc(O)cc2)oc2cc(O)cc(O)c12", "note": "[3-[(2S)-5,7-dihydroxy-2-(4-hydroxyphenyl)-3,4-dihydro-2H-1-benzopyran-8-yl]-5,7-dihydroxy-2-(4-hydroxyphenyl)-1-benzopyran-4-one]", "EC50": "> 120"}, {"smiles": "Cc1cccc(N2CCN(CCCNC(=O)c3ccc(NC(=O)C4=CSCCO4)cc3)CC2C)c1", "note": "(stereo not drawn)", "EC50": 7.97}, {"smiles": "Cc1occc1C(=O)NN=Cc1ccc(N(C)C)cc1", "note": "[N-[[4-(dimethylamino)phenyl]methylideneamino]-2-methylfuran-3-carboxamide]", "EC50": "> 120"}, {"smiles": "c1ccc(Nc2ccnc(Nc3ccccc3)n2)cc1", "note": "[N*2*,N*4*-Diphenyl-pyrimidine-2,4-diamine]", "EC50": 14.9}, {"smiles": "Fc1ccc(-c2c[nH]cn2)cc1", "note": "[4-(4-fluorophenyl)-1H-imidazole]", "EC50": "> 120"}, {"smiles": "CNC(=S)Nc1cccc(-c2cnc3ccccc3n2)c1", "EC50": "> 120"}, {"smiles": "N#Cc1c2ccc(O)cc2n2ccccc12", "note": "[3-hydroxypyrido[1,2-a]indole-10-carbonitrile]", "EC50": 4.59}, {"smiles": "CCCCCCCCCC[N+](C)(C)CC/C=C1/c2ccccc2Sc2ccc(Cl)cc21", "note": "[[(3Z)-3-(2-chloro-9-thioxanthenylidene)propyl]-decyl-dimethylammonium;bromide]", "EC50": "> 120"}, {"smiles": "COc1cc(C=Nn2c(C3CCCCC3)n[nH]c2=S)ccc1O", "note": "[(4E)-4-[[(3-cyclohexyl-5-sulfanylidene-1H-1,2,4-triazol-4-yl)amino]methylidene]-2-methoxy-cyclohexa-2,5-dien-1-one]", "EC50": 22}, {"smiles": "Nc1ccc(N)c2c(O)c3ccccc3c(O)c12", "note": "[1,4-bis(azanyl)-2,3-dihydroanthracene-9,10-dione]", "EC50": 23.8}, {"smiles": "CC(C)n1cnc2c(Nc3cccc(Cl)c3)nc(N(CCO)CCCO)nc21", "EC50": 2.86}, {"smiles": "O=C(c1ccc2c3n(nc2c1)-c1ccccc1CO3)N1CCOCC1", "note": "[5H-indazolo[2,3-a][3,1]benzoxazin-9-yl(4-morpholinyl)methanone]", "EC50": 18.4}, {"smiles": "O=C(CSc1nc(N2CCCCC2)nc(N2CCCCC2)n1)c1ccccc1", "note": "[2-[[4,6-di(piperidin-1-yl)-1,3,5-triazin-2-yl]sulfanyl]-1-phenyl-ethanone]", "EC50": "> 120"}, {"smiles": "CC1CCN(C2=NC(=O)/C(=C/c3ccc(O)cc3)S2)CC1", "note": "[MLS001205076]", "EC50": 10.4}, {"smiles": "Cn1c(/N=N/c2ccccc2)nc2ccccc21", "note": "[(1-methyl-2-benzimidazolyl)-phenyldiazene]", "EC50": "> 120"}, {"smiles": "O=C1Nc2ccccc2C1=Cc1cnc[nH]1", "note": "[SMR000180717]", "EC50": 7.94}, {"smiles": "CCc1ncc(C=C2C(=O)Nc3ccccc32)[nH]1", "note": "[3-[(Z)-(2-ethyl-1H-imidazol-5-yl)methylidene]-1H-indol-2-one]", "EC50": 5.25}, {"smiles": "CN(C)/C=C/C(=O)c1ccc2noc(-c3ccccc3)c2c1", "note": "[SMR000549693]", "EC50": 15.9}, {"smiles": "O=C(Nc1nc2ccccc2[nH]1)c1ccc(Br)o1", "note": "[SMR000352903]", "EC50": 10.1}, {"smiles": "CC(C)(C)c1[nH]nc2c1C(=O)c1ccccc1-2", "note": "[SMR000528110]", "EC50": 25}, {"smiles": "Nc1c(O)ccc2c1C(=O)c1ccccc1C2=O", "note": "[1-amino-2-hydroxy-9,10-anthraquinone]", "EC50": 34.7}]}]}
